Test results as given in patent US9328128B2 (priority 2010, dated 2016).

Experiments:
Glucose uptake = type: cell-based, rat
[1] = rat, in vivo
[2] = test system: intestinal BBMV phosphatases; type: biochemical
[3] = target: T1, intestinal Na-phosphate cotransporter (Rattus norvegicus, UniProt Q9JJ09); type: biochemical; design: other: intestinal BBMV; 3-second exposure of vesicles and substra; 2′-FPP vs 2′-PP; settings: read-out: IC50 for inhibition of Na-dependent phosphate uptake
T1 sequence (Q9JJ09 1-695): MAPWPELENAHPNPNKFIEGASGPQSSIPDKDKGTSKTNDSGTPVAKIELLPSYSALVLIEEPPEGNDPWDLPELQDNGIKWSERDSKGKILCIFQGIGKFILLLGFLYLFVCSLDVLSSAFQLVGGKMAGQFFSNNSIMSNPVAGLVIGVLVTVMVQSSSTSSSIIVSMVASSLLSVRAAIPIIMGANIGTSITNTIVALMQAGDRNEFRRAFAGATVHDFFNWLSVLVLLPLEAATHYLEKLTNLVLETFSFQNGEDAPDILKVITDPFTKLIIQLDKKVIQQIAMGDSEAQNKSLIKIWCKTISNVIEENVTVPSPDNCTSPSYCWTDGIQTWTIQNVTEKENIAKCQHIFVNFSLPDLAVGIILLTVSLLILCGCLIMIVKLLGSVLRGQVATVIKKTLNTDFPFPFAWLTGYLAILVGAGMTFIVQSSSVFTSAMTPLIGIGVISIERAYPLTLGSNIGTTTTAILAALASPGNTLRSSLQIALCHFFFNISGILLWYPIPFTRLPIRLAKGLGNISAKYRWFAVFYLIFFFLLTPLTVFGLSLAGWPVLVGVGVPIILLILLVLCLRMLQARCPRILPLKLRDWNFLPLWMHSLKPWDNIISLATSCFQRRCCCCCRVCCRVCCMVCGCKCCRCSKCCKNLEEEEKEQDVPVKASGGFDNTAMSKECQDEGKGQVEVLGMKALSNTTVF

[4] = target: T1, intestinal Na-phosphate cotransporter; type: biochemical
[5] = target: T2, intestinal brush border membrane Na/phosphate cotransporter, NaPi 2b (Rattus norvegicus, UniProt Q9JJ09); assay: cell-based; type: cell-based
T2 construct: Rat duodenum/jejunum intestinal strips 1 cm square were incubated in DMEM; from tissue; host or cells: rat duodenum/jejunum intestinal strips
T2 sequence (Q9JJ09 1-695): T1 sequence (Q9JJ09 1-695)

rat alkaline phosphatase = assay: p-nitrophosphate hydrolysis by rat alkaline phosphatase; type: biochemical
Protocol: The results shown in Example A used a 3-second exposure of vesicles and substrates and a 5 minute exposure of vesicles to 2′-FPP. Prior exposure and degradation of 2′-PP in contrast to 2′-FPP could be contributing to the increased potency of 2′-FPP as compared to 2′-PP. To examine this possibility the effect of phosphophloretins on p-nitrophosphate hydrolysis by rat alkaline phosphatase and intestinal BBMV phosphatases was examined.

[6] = rat, in vivo; remark: listed apart in the source

**Q.** What does the source list for O=C(CCc1ccc(O)cc1)c1c(O)cc(O)cc1OP(=O)(O)O?
**A.** Glucose uptake (Glucose uptake): unaffected; change in serum Ca2+ [1]: no change; decrease in serum phosphorus [1]: 30%; inhibition of intestinal BBMV phosphatase activity [2]: approximately 50%; IC50 [3]: 0.046 µM; decrease of IC50 on addition of alkaline phosphatase inhibitors [4]: 34%; IC50 [5]: 15 µM; Maximum inhibition of total phosphate absorption [5]: 43±6%; inhibition of phosphate uptake [5]: 40%; inhibition of phosphate uptake 6 hours post-drug exposure [5]: less than 35%; inhibition of alkaline phosphatase activity, compared with 2′-FPP (rat alkaline phosphatase): better inhibitor; side effects [6]: no side effects
